The numbers were not newly measured in US20120328543A1, “USE OF A CATIONIC, ADVANTAGEOUSLY AMPHOTERIC, SURFACTANT FOR THE PREPARATION OF AN ANTIFUNGAL SOLUTION THAT CAN BE APPLIED TO THE NAIL” (priority 2009, published 2012), which cites them from elsewhere.

Test in data set [1]: not given
This is another data set of the same source.

On to `CN(C/C=C/C#CC(C)(C)C)Cc1cccc2ccccc12.Cl` [Terbinafine HCl, terbinafine hydrochloride], for which the solubility in water is 5.32 µg/mL. For the same compound, the pKa in data set [1] is listed as 7.10.

As usually defined, the pKa is the negative logarithm of the acid dissociation constant.
